Test results reported in PubChem BioAssay AID248 (DTP/NCI, 2004).
Values joined by “and” are separate entries in the source; they are usually repeats but may differ in a detail not shown here. Equal entries are not always repeated. Toxic doses and inconclusive results are not listed.

Test system: L1210 leukemia ip in BDF1 mice, survival T/C
Experiment: NCI In Vivo Anticancer Drug Screen. Data for tumor model L1210 Leukemia (intraperitoneal) in B6D2F1 (BDF1) mice
Conditions: endpoint: mean survival time, higher = longer survival
Outline: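 Transplantable tumor model; survival measured in treated vs vehicle control mice. Value = treated/control.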

[1] = dose: 100.0 mg/kg/injection, schedule: Q01DX009 (ip), vehicle: saline
[2] = dose: 100.0 mg/kg/injection, schedule: Q04DX003 (ip), vehicle: saline with Tween-80
[3] = dose: 200.0 mg/kg/injection, schedule: Q04DX003 (ip), vehicle: saline with Tween-80
[4] = dose: 400.0 mg/kg/injection, schedule: Q04DX003 (ip), vehicle: saline with Tween-80
[5] = dose: 100.0 mg/kg/injection, schedule: Q04DX002 (ip), vehicle: Klucel (hydroxypropylcellulose) (HPC)
[6] = dose: 200.0 mg/kg/injection, schedule: Q04DX002 (ip), vehicle: Klucel (hydroxypropylcellulose) (HPC)
[7] = dose: 400.0 mg/kg/injection, schedule: Q04DX002 (ip), vehicle: Klucel (hydroxypropylcellulose) (HPC)
[8] = dose: 50.0 mg/kg/injection, schedule: Q04DX002 (ip), vehicle: Klucel (hydroxypropylcellulose) (HPC)
[9] = dose: 100.0 mg/kg/injection, schedule: Q01DX009 (ip), vehicle: Klucel (hydroxypropylcellulose) (HPC)
[10] = dose: 200.0 mg/kg/injection, schedule: Q01DX009 (ip), vehicle: Klucel (hydroxypropylcellulose) (HPC)
[11] = dose: 400.0 mg/kg/injection, schedule: Q01DX009 (ip), vehicle: Klucel (hydroxypropylcellulose) (HPC)
[12] = dose: 100.0 mg/kg/injection, schedule: Q04DX003 (ip), vehicle: Klucel (hydroxypropylcellulose) (HPC)
[13] = dose: 200.0 mg/kg/injection, schedule: Q04DX003 (ip), vehicle: Klucel (hydroxypropylcellulose) (HPC)
[14] = dose: 400.0 mg/kg/injection, schedule: Q04DX003 (ip), vehicle: Klucel (hydroxypropylcellulose) (HPC)
[15] = dose: 100.0 mg/kg/injection, schedule: Q01DX001 (ip), vehicle: carboxymethylcellulose (CMC)
[16] = dose: 200.0 mg/kg/injection, schedule: Q01DX001 (ip), vehicle: carboxymethylcellulose (CMC)
[17] = dose: 400.0 mg/kg/injection, schedule: Q01DX001 (ip), vehicle: carboxymethylcellulose (CMC)
[18] = dose: 100.0 mg/kg/injection, schedule: Q01DX001 (ip), vehicle: saline
[19] = dose: 200.0 mg/kg/injection, schedule: Q01DX001 (ip), vehicle: saline
[20] = dose: 400.0 mg/kg/injection, schedule: Q01DX001 (ip), vehicle: saline

SMILES: COc1ccc(OC)c(NC(=O)OCC(Cl)(Cl)Cl)c1
- T/C [1]: 109 % of control
- T/C (dose: 200.0 mg/kg/injection, schedule: Q01DX009 (ip), vehicle: saline): 104 % of control
- T/C (dose: 400.0 mg/kg/injection, schedule: Q01DX009 (ip), vehicle: saline): 98 % of control

SMILES: CCC(C(=O)OC)C1CCCCC1 (stereo not drawn)
- T/C (dose: 100.0 mg/kg/injection, schedule: Q01DX009 (ip), vehicle: saline with Tween-80): 100 % of control
- T/C [2]: 103 % of control
- T/C (dose: 200.0 mg/kg/injection, schedule: Q01DX009 (ip), vehicle: saline with Tween-80): 87 % of control
- T/C [3]: 95 % of control
- T/C (dose: 400.0 mg/kg/injection, schedule: Q01DX009 (ip), vehicle: saline with Tween-80): 92 % of control
- T/C [4]: 95 % of control

SMILES: COc1ccc(NCCOc2ccccc2Br)cc1
- T/C (dose: 100.0 mg/kg/injection, schedule: Q01DX009 (ip), vehicle: other): 96 % of control
- T/C (dose: 200.0 mg/kg/injection, schedule: Q01DX009 (ip), vehicle: other): 96 % of control
- T/C (dose: 400.0 mg/kg/injection, schedule: Q01DX009 (ip), vehicle: other): 104 % of control

SMILES: Nc1ccc([As](=O)(O)O)cc1
- T/C (dose: 25.0 mg/kg/injection, schedule: Q01DX009 (ip), vehicle: saline): 102 % of control
- T/C (dose: 50.0 mg/kg/injection, schedule: Q01DX009 (ip), vehicle: saline): 102 % of control
- T/C [1]: 94 % of control and 104 % of control
- T/C (dose: 100.0 mg/kg/injection, schedule: Q04DX002 (ip), vehicle: saline): 91 % of control
- T/C (dose: 200.0 mg/kg/injection, schedule: Q04DX002 (ip), vehicle: saline): 102 % of control
- T/C (dose: 400.0 mg/kg/injection, schedule: Q04DX002 (ip), vehicle: saline): 87 % of control

SMILES: CCCCOC(=O)C(O)C(C)(Cl)c1ccccc1 (stereo not drawn)
- T/C [5]: 106 % of control
- T/C [6]: 103 % of control
- T/C [7]: 106 % of control

SMILES: c1cc[c]([Pb]([c]2ccccc2)([c]2ccccc2)[c]2ccccc2)cc1
- T/C [8]: 103 % of control
- T/C [5]: 103 % of control
- T/C [6]: 113 % of control and 115 % of control
- T/C [7]: 101 % of control

SMILES: CC(=O)OC1CCC2(C)C(=CCC3C2CCC2(C)C3CC(SCC(=O)O)C2SCC(=O)O)C1 (stereo not drawn)
- T/C (dose: 100.0 mg/kg/injection, schedule: Q04DX003 (sc), vehicle: steriod suspending solution): 98 % of control
- T/C (dose: 200.0 mg/kg/injection, schedule: Q04DX003 (sc), vehicle: steriod suspending solution): 106 % of control
- T/C (dose: 400.0 mg/kg/injection, schedule: Q04DX003 (sc), vehicle: steriod suspending solution): 106 % of control

SMILES: O=C(O)C1CCC2SC(F)(F)C(F)(F)C2C1 (stereo not drawn)
- T/C [2]: 98 % of control
- T/C [3]: 96 % of control
- T/C [4]: 98 % of control

SMILES: O=C(O)C(CCCN1C(=O)c2ccccc2C1=O)N1C(=O)c2ccccc2C1=O (stereo not drawn)
- T/C [9]: 93 % of control
- T/C [10]: 94 % of control
- T/C [11]: 98 % of control

SMILES: COc1ccc(COC(=O)Nc2ccc(Cl)c(Cl)c2)cc1OC
- T/C [9]: 95 % of control
- T/C [12]: 101 % of control
- T/C [10]: 88 % of control
- T/C [13]: 106 % of control
- T/C [11]: 95 % of control
- T/C [14]: 90 % of control

SMILES: CN(C)Cc1ccccc1COC(=O)/C=C/c1ccccc1
- T/C [8]: 101 % of control
- T/C [5]: 94 % of control
- T/C [6]: 97 % of control

SMILES: Nc1ccc2c(c1)-c1ccc(F)cc1C2
- T/C [15]: 89 % of control
- T/C [16]: 100 % of control
- T/C [17]: 94 % of control

SMILES: NC(=O)c1ccccc1OC(=O)Nc1ccccc1
- T/C (dose: 50.0 mg/kg/injection, schedule: Q01DX009 (ip), vehicle: Klucel (hydroxypropylcellulose) (HPC)): 103 % of control
- T/C [9]: 101 % of control
- T/C [5]: 89 % of control
- T/C [6]: 99 % of control

SMILES: CC(C)OC(=O)Oc1cccc2c1C(=O)c1ccccc1C2=O
- T/C [9]: 91 % of control
- T/C [12]: 97 % of control
- T/C [10]: 91 % of control
- T/C [13]: 93 % of control
- T/C [14]: 104 % of control

SMILES: [O-][N+](CCO)(CCO)Cc1ccccc1
- T/C (dose: 50.0 mg/kg/injection, schedule: Q01DX001 (ip), vehicle: saline): 103 % of control
- T/C [18]: 103 % of control
- T/C [19]: 103 % of control
- T/C [20]: 101 % of control

SMILES: CC1CCCCC12C(=O)NC(=S)NC2=O (stereo not drawn)
- T/C (dose: 75.0 mg/kg/injection, schedule: Q01DX001 (ip), vehicle: other): 112 % of control
- T/C (dose: 150.0 mg/kg/injection, schedule: Q01DX001 (ip), vehicle: other): 98 % of control
- T/C (dose: 300.0 mg/kg/injection, schedule: Q01DX001 (ip), vehicle: other): 101 % of control

SMILES: O=Cc1ccc(N2CCCCC2)cc1
- T/C [9]: 100 % of control
- T/C [12]: 101 % of control
- T/C [10]: 107 % of control
- T/C [13]: 95 % of control
- T/C [14]: 89 % of control

SMILES: Cc1[nH]c(=O)[nH]c(=O)c1N(CCF)CCCl
- T/C (dose: 5.0 mg/kg/injection, schedule: Q01DX009 (ip), vehicle: Klucel (hydroxypropylcellulose) (HPC)): 104 % of control and 107 % of control
- T/C (dose: 5.0 mg/kg/injection, schedule: Q01DX009 (ip), vehicle: saline): 106 % of control
- T/C (dose: 9.0 mg/kg/injection, schedule: Q01DX009 (ip), vehicle: Klucel (hydroxypropylcellulose) (HPC)): 108 % of control
- T/C (dose: 10.0 mg/kg/injection, schedule: Q01DX009 (ip), vehicle: Klucel (hydroxypropylcellulose) (HPC)): 112 % of control
- T/C (dose: 10.0 mg/kg/injection, schedule: Q01DX009 (ip), vehicle: saline): 112 % of control
- T/C (dose: 14.0 mg/kg/injection, schedule: Q01DX009 (ip), vehicle: Klucel (hydroxypropylcellulose) (HPC)): 120 % of control
- T/C (dose: 20.0 mg/kg/injection, schedule: Q01DX009 (ip), vehicle: Klucel (hydroxypropylcellulose) (HPC)): 110 % of control
- T/C (dose: 20.0 mg/kg/injection, schedule: Q01DX009 (ip), vehicle: saline): 124 % of control
- T/C (dose: 23.0 mg/kg/injection, schedule: Q01DX009 (ip), vehicle: Klucel (hydroxypropylcellulose) (HPC)): 123 % of control
- T/C (dose: 23.0 mg/kg/injection, schedule: Q04DX003 (ip), vehicle: Klucel (hydroxypropylcellulose) (HPC)): 108 % of control
- T/C (dose: 39.0 mg/kg/injection, schedule: Q01DX009 (ip), vehicle: Klucel (hydroxypropylcellulose) (HPC)): 94 % of control
- T/C (dose: 39.0 mg/kg/injection, schedule: Q04DX003 (ip), vehicle: Klucel (hydroxypropylcellulose) (HPC)): 116 % of control
- T/C (dose: 65.0 mg/kg/injection, schedule: Q01DX001 (ip), vehicle: Klucel (hydroxypropylcellulose) (HPC)): 104 % of control
- T/C (dose: 108.0 mg/kg/injection, schedule: Q01DX001 (ip), vehicle: Klucel (hydroxypropylcellulose) (HPC)): 110 % of control
- T/C (dose: 108.0 mg/kg/injection, schedule: Q04DX003 (ip), vehicle: Klucel (hydroxypropylcellulose) (HPC)): 96 % of control
- T/C (dose: 180.0 mg/kg/injection, schedule: Q01DX001 (ip), vehicle: Klucel (hydroxypropylcellulose) (HPC)): 120 % of control
- T/C (dose: 180.0 mg/kg/injection, schedule: Q04DX003 (ip), vehicle: Klucel (hydroxypropylcellulose) (HPC)): 96 % of control

SMILES: CC(=O)C(C)(C)/C(C)=C/C(=O)O
- T/C [9]: 95 % of control
- T/C [12]: 100 % of control
- T/C [10]: 95 % of control
- T/C [13]: 100 % of control
- T/C [11]: 98 % of control
- T/C [14]: 97 % of control

SMILES: CS(=O)(=O)NC[C@H](Cl)[C@@H](Cl)CNS(C)(=O)=O
- T/C [18]: 100 % of control
- T/C [19]: 102 % of control
- T/C [20]: 91 % of control

SMILES: OCn1nc(Cl)c2cc(Cl)ccc21
- T/C [15]: 103 % of control
- T/C [16]: 98 % of control
- T/C [17]: 100 % of control

SMILES: O=NN(CCCl)C(=O)NC1Cc2ccccc2C1
- T/C (dose: 8.0 mg/kg/injection, schedule: Q01DX001 (ip), vehicle: other): 109 % of control
- T/C (dose: 62.0 mg/kg/injection, schedule: Q01DX001 (ip), vehicle: other): 239 % of control
- T/C (dose: 125.0 mg/kg/injection, schedule: Q01DX001 (ip), vehicle: other): 264 % of control
- T/C (dose: 250.0 mg/kg/injection, schedule: Q01DX001 (ip), vehicle: other): 112 % of control
- T/C (dose: 500.0 mg/kg/injection, schedule: Q01DX001 (ip), vehicle: other): 86 % of control

SMILES: N#CC1CN(c2ccccc2)CC1=O (stereo not drawn)
- T/C [9]: 97 % of control
- T/C [10]: 96 % of control
